Laboratory results from patent US11884638B2, “Compound or salt thereof, composition for cysteine detection, fluorescent probe and composition for diagnosing cancer containing the same, method for detecting cysteine, method for providing information for diagnosing cancer, and method for producing compound” (Industry-Academic Cooperation Group of Kyung Hee University, priority 2021, dated 2024).

Legend:
[1] = Fluorescence spectral analysis of Compound 1 in urine derived from cervical cancer patients; parameters: species or system human; details: Compound 1 100 μM, urines N=100 versus normal N=308, 37° C. 40 minutes
Experimental: Specifically, fluorescence spectral analysis was performed immediately after treatment of the urines with Compound 1 (black line). After stirring at 37° C. for 40 minutes, fluorescence spectral analysis was performed (red line). […]

[2] = Fluorescence emission of Compound 1 with cysteine added to non-pretreated urine; parameters: species or system human
Experimental: In order to confirm the reaction of Compound 1 with cysteine in urine, non-pretreated urine (198 μL) was treated with varying concentrations (1 to 120 ng/μL) of cysteine, and then treated with Compound 1 (100 μM). The resulting urines were stirred in a stirrer at 37° C. for 40 minutes, and the fluorescence spectra were measured (excitation wavelength: 488 nm). In addition, Compound 1 was used after dissolution in a DMSO solution at 10 mM, and the amount of DMSO in the final solvent condition was controlled to be the same for each container (less than 1%).
Specifically, a spectro-fluorophotometer (SHIMADZU Corp. RF-6000, Japan) was used to analyze the emission spectrum, and the glass cuvette used for fluorescence measurement was a standard quartz cell (internal volume=[…], Hellma Analytics, Jena, Germany) having a thickness of 1 cm on all sides. In addition, a chamber (WUV-L10, DAIHAN Scientific) capable of excitation at a wavelength of 365 nm was used to visually observe the fluorescence change.
When the urine was treated with compound 1 (100 μM) and cysteine (60 ng/μL or higher), fluorescence changes were visible without a separate fluorescence measurement device. Although fluorescence changes were not visible when the urine was treated with Compound 1 (100 μM) and cysteine (concentration of 10 ng/μL or lower), examination was made as to whether fluorescence changes in this treatment could be confirmed using a fluorescence measurement device (FIG. 1(b)). Referring to FIG. 1(b), significant fluorescence changes could be obtained in the presence of 1 ng/μL of cysteine in urine, and statistical data thereon are shown below.

[3] = Binding selectivity of Compound 1 to cysteine in urine by fluorescence change; details: 37° C. 40 minutes, excitation 488 nm; for selectivity of fluorescence change among biomolecules detectable in urine: each biomolecule 100 μM (cysteine, glutathione, aspartic acid, glutamine, lysine, arginine, adenosine triphosphate, sucrose, ammonium), FIG. 2(b)
Experimental: Specifically, in order to determine whether Compound 1 selectively binds to cysteine in urine, cysteine and N-ethylmaleimide (NEM) (500 μM) capable of lowering cysteine concentration in urine were used. In addition, glutathione, aspartic acid, glutamine, lysine, arginine, adenosine triphosphate, sucrose, and ammonium used in the experiment were products obtained from TCI (Tokyo Chemical Industry Co., Ltd), Sigma Aldrich, and Alfa Company. The concentration of each biomolecule was equally measured at 100 μM. In addition, in order to obtain fluorescence spectra and values, Compound 1 and an unknown sample were stirred at 37° C. for 40 minutes and then excited at a wavelength of 488 nm.
The types of biomolecules indicated on the x-axis of FIG. 2(b) are as follows, and the following Probe 1 corresponds to Compound 1: • (A) Probe 1; • (B) Probe 1 with L-cysteine; • (C) Probe 1 with L-glutathione; • (D) Probe 1 with L-aspartic acid; • (E) Probe 1 with L-glutamine; • (F) Probe 1 with L-lysine; • (G) Probe 1 with L-arginine; • (H) Probe 1 with adenosine triphosphate; • (I) Probe 1 with sucrose; • (J) Probe 1 with ammonium.

[4] = Fluorescence spectral analysis of Compound 1 in urines from patients with other diseases including cancer; parameters: species or system human; details: Compound 1 100 μM, 37° C. 40 minutes
From the text: The urines used in the experiment were collected from urolithiasis patients (B, N=162), kidney cancer patients (C, N=162), prostate cancer patients (D, N=162), bladder cancer patients (E, N=162), cervical cancer patients (F, N=100), diabetic patients (G, N=100), pituitary cancer patients (H, N=100), adrenal cancer patients (I, N=100), lung cancer patients (J, N=100), ovarian cancer patients (K, N=100), pancreatic and biliary tract cancer patients (L, N=100), and pancreatic cancer patients (M, N=100). In the measurement method, each of the collected urine (198 μL) and Compound 1 (100 μM) were mixed together, the fluorescence spectra thereof were measured, and the highest fluorescence intensity value was taken. Then, each mixture was stirred at 37° C. for 40 minutes, and the highest fluorescence intensity value obtained from the fluorescence spectra was taken. The difference between the fluorescence intensity values before and after the reaction was shown as a bar graph.

## O=[N+]([O-])c1ccc(Oc2c(F)c(F)c(F)c(F)c2F)c2nonc12 [Compound 1, 4-nitro-7-(Perfluorophenoxy)benzo[c][1,2,5]oxadiazole]
[1]
  fluorescence values after reaction in urines derived from cervical cancer patients: high fluorescence values
[2]; normal urine, Compound 1 100 μM, 37° C. 40 minutes, excitation at 365 nm
  cysteine concentration at which fluorescence changes were visible without a separate fluorescence measurement device: ≥ 60 ng/µL
[2]; normal urine, Compound 1 100 μM, 37° C. 40 minutes, excitation at 365 nm, by eye
  cysteine concentration at which fluorescence changes were not visible: ≤ 10 ng/µL
[2]; urine, Compound 1 100 μM, 37° C. 40 minutes, excitation 488 nm
  cysteine concentration in urine giving significant fluorescence changes using a fluorescence measurement device: 1 ng/µL
[2]; when bound to cysteine
  wavelength of fluorescence turn-on upon binding to cysteine: ~550 nm
[3]; FIG. 2(a)
  fluorescence value in urine containing cysteine: high fluorescence value
[3]; N-ethylmaleimide 500 μM, urine, FIG. 2(a)
  fluorescence value on co-treatment with N-ethylmaleimide which reduces cysteine: fluorescence value decreased
[3]
  selectivity of fluorescence change among biomolecules detectable in urine: significant fluorescence change could be observed only for cysteine
[3]; listed as 4-nitro-7-(perfluorophenoxy)benzo[c][1,2,5]oxadiazole
  selectivity of fluorescence change among biomolecules detectable in urine: selectively detect cysteine in urine without interference of other biomolecules
[4]; cervical cancer patients (F) compared with the other patient groups
  patient group with the largest fluorescence emission effect: greatest in the case of cervical cancer patients
[4]; urines of urolithiasis (B), cervical cancer (F), adrenal cancer (I), ovarian cancer (K), pancreatic and biliary tract cancer (L) patients
  fluorescence emission (difference of highest fluorescence intensity before and after reaction) in patient urines: noticeable fluorescence emission was observed
